# Read-outs that look alike come from different tables or passages of the source.
# Tests used:
# Format in all cases: cell-based
# [1] = system: ovarian cancer cells (PA-1); assay: Cancer cell line growth inhibition (SRB assay); settings: read-out: Cancer Cell Line GI50 Range PA-1
# [2] = system: colon cancer cells (HCT116); assay: Cancer cell line growth inhibition (SRB assay); settings: Homo sapiens, HCT-116, read-out: Cancer Cell Line GI50 Range HCT116
# [3] = system: TICs (Colon 12); assay: Colon tumor-initiating cell growth inhibition (Alamar Blue); settings: 216 h, 9 days, read-out: Tumor Initiating Cell GI50 Range Colon 12
# Text: Materials and Methods: Non-tissue or tissue cultured treated T-75 flask and 96-well plates were purchased from VWR. Vitamin B-27 supplement, MEM NEAA (minimum essential medium non essential amino acids), sodium pyruvate, L-glutamine, N2 supplement, penicillin-streptomycin and fungizone/amphotericin B were obtained from Invitrogen. Lipid mixture, heparin and EGF were purchased from Sigma; bFGF from BD Biosciences. Tumor Initiating Cells (TICs) from colon were routinely maintained using non-tissue cultured treated T-75 flasks in DMEM:F12 medium containing 0.2×B-27 supplement, 4 ug/ml heparin, 1×MEM NEAA, 1× sodium pyruvate, 1 mM glutamine, 10 pg/ul bFGF, 20 pg/ul EGF, 1×N2 supplement, lipid mixture, penicillin-streptomycin and fungizone/amphotericin B. Ovarian TICs were routinely maintained using tissue cultured treated T-75 flasks in DMEM:F12 medium containing 1×B-27 supplement, 4 ug/ml heparin, 20 pg/ul bFGF, 20 pg/ul EGF and penicillin-streptomycin.
# Assay Protocol: Compounds described herein were dissolved in DMSO and further diluted in cell culture medium for GI50 determination. Colon TICs were trypsinized and seeded into non-tissue cultured treated 96-well plates with 4,000 cells/well. After 24 h, compound was added into the cell culture at different concentrations, and the final concentration of DMSO was adjusted to 0.1%. Cells were then cultured at 37° C. for 9 days. Ovarian TICs were trypsinized and seeded into tissue cultured treated 96-well plates with 1,000 cells/well. After 24 h, compound was added into the cell culture at different concentrations, and the final concentration of DMSO was adjusted to 0.1%. Cells were then cultured at 37° C. for 6 days. Cell viability was assessed by Alamar Blue assay: 10 ul of Alamar Blue was added into each well. After 4 hours incubation at 37° C., fluorescence was recorded at excitation 544 and emission 590. GI50 (Growth inhibition) was calculated using GraphPad Prism 4.0 software.
# [4] = system: TICs (Ovarian 2393A); assay: Ovarian tumor-initiating cell growth inhibition (Alamar Blue); settings: 144 h, 6 days, read-out: Tumor Initiating Cell GI50 Range Ovarain 2393A
# [5] = PA-1 ovarian cancer cells, SRB assay
# [6] = HCT116 colon cancer cells, SRB assay
SMILES,"GI50 [1, 5] [nM]","GI50 [2, 6] [nM]","GI50 ([3]; colon TICs, Alamar Blue) [nM]","GI50 ([4]; ovarian TICs, Alamar Blue) [nM]","GI50 ([1]; Homo sapiens, PA-1) [nM]",GI50 [2] [nM],GI50 ([3]; Colon 12 TICs) [nM],GI50 ([4]; Ovarian 2393A TICs) [nM]
"CN1CCC(Oc2ccc(-c3n[nH]c4ccc(NC(=O)C(c5cccs5)N5CCCC5)cc34)cc2)CC1 (stereo not shown) [Example A91, N-(3-(4-((1-methylpiperidin-4-yl)oxy)phenyl)-1H-indazol-5-yl)-2-(pyrrolidin-1-yl)-2-(thiophen-2-yl)acetamide]",< 100,< 100,100 to 500,< 100,–,–,–,–
"CC(C)C(NC(=O)c1ccc2[nH]nc(-c3ccc(OC4CCN(C)CC4)cc3)c2c1)c1ccccc1Cl (stereo not shown) [Example A144, N-(1-(2-chlorophenyl)-2-methylpropyl)-3-(4-((1-methylpiperidin-4-yl)oxy)phenyl)-1H-indazole-5-carboxamide]",< 100,< 100,< 100,< 100,–,–,–,–
"O=C(N[C@@H](c1ncccc1Cl)C1CC1)c1ccc2[nH]nc(-c3ccc(OC4CCN(C5COC5)CC4)cc3)c2c1 [Example A215, (R)-N-((3-chloropyridin-2-yl)(cyclopropyl)methyl)-3-(4-((1-(oxetan-3-yl)piperidin-4-yl)oxy)phenyl)-1H-indazole-5-carboxamide]",–,–,–,–,< 100,< 100,< 100,100 to 500
"C[C@@H](NC(=O)c1ccc2[nH]nc(-c3ccc(OC4CCN(C)CC4)cc3)c2c1)c1ccccc1F [Example A134, (R)-N-(1-(2-fluorophenyl)ethyl)-3-(4-((1-methylpiperidin-4-yl)oxy)phenyl)-1H-indazole-5-carboxamide]",100 to 500,< 100,100 to 500,> 500,–,–,–,–
"CC(C)(O)C1CCN(c2ccc(-c3n[nH]c4ccc(C(=O)NC(c5ccccn5)C5CC5)cc34)cc2)CC1 (stereo not shown) [Example A180, N-(cyclopropyl(pyridin-2-yl)methyl)-3-(4-(4-(2-hydroxypropan-2-yl)piperidin-1-yl)phenyl)-1H-indazole-5-carboxamide]",100 to 500,< 100,100 to 500,100 to 500,–,–,–,–
"CN1CCC(Oc2ccc(-c3n[nH]c4ccc(NC(=O)C(OC5CCCC5)c5ccccc5)cc34)cc2)CC1 (stereo not shown) [Example A183, 2-(cyclopentyloxy)-N-(3-(4-((1-methylpiperidin-4-yl)oxy)phenyl)-1H-indazol-5-yl)-2-phenylacetamide]",100 to 500,100 to 500,> 500,> 500,–,–,–,–
"COc1ccccc1C(NC(=O)c1ccc2[nH]nc(-c3ccc(OC4CCN(C)CC4)cc3)c2c1)C1CC1 (stereo not shown) [Example A151, N-(cyclopropyl(2-methoxyphenyl)methyl)-3-(4-((1-methylpiperidin-4-yl)oxy)phenyl)-1H-indazole-5-carboxamide]",100 to 500,< 100,100 to 500,100 to 500,–,–,–,–
"O=C(N[C@H](c1ccccn1)C1CC1)c1ccc2[nH]nc(-c3ccc(OC4CCN(C5COC5)CC4)cc3)c2c1 [Example A197, (S)-N-(cyclopropyl(pyridin-2-yl)methyl)-3-(4-((1-(oxetan-3-yl)piperidin-4-yl)oxy)phenyl)-1H-indazole-5-carboxamide]",< 100,< 100,< 100,< 100,–,–,–,–
"Cc1ccccc1C(NC(=O)c1ccc2[nH]nc(-c3ccc(OC4CCN(C)CC4)cc3)c2c1)C1CC1 (stereo not shown) [Example A132, N-(cyclopropyl(o-tolyl)methyl)-3-(4-((1-methylpiperidin-4-yl)oxy)phenyl)-1H-indazole-5-carboxamide]",< 100,< 100,< 100,100 to 500,–,–,–,–
O=CN1CCC(Oc2ccc(-c3n[nH]c4ccc(C(=O)NC(c5ccccc5F)C5CC5)cc34)cc2)CC1 (stereo not shown) [Example A182],< 100,< 100,< 100,< 100,–,–,–,–
"CN1CCC(Oc2ccc(-c3n[nH]c4ccc(C(=O)NC(c5ccccn5)C5CCC5)cc34)cc2)CC1 (stereo not shown) [Example A210, N-(cyclobutyl(pyridin-2-yl)methyl)-3-(4-((1-methylpiperidin-4-yl)oxy)phenyl)-1H-indazole-5-carboxamide]",–,–,–,–,< 100,< 100,100 to 500,100 to 500
"CN1CCC(Oc2ccc(-c3n[nH]c4ccc(C(=O)NC(c5cccs5)C5CC5)cc34)cc2)CC1 (stereo not shown) [Example A147, N-(cyclopropyl(thiophen-2-yl)methyl)-3-(4-((1-methylpiperidin-4-yl)oxy)phenyl)-1H-indazole-5-carboxamide]",< 100,< 100,100 to 500,< 100,–,–,–,–
"O=C(Nc1ccc2[nH]nc(-c3ccc(OC4CCN(C5COC5)CC4)cc3)c2c1)C(c1ccccc1)C1CC1 (stereo not shown) [Example A185, 2-cyclopropyl-N-(3-(4-((1-(oxetan-3-yl)piperidin-4-yl)oxy)phenyl)-1H-indazol-5-yl)-2-phenylacetamide]",100 to 500,100 to 500,100 to 500,100 to 500,–,–,–,–
"CC[C@@H](NC(=O)c1ccc2[nH]nc(-c3ccc(OC4CCN(C)CC4)cc3)c2c1)c1cccc(OC)c1 [Example A174, (R)-N-(1-(3-methoxyphenyl)propyl)-3-(4-((1-methylpiperidin-4-yl)oxy)phenyl)-1H-indazole-5-carboxamide]",100 to 500,< 100,100 to 500,100 to 500,–,–,–,–
CN1[C@@H]2CC[C@H]1C[C@@H](Oc1ccc(-c3n[nH]c4ccc(C(=O)NC(c5ccccc5)C5CC5)cc34)cc1)C2 (stereo partly shown) [Example A178],< 100,< 100,100 to 500,100 to 500,–,–,–,–
"O=C(N[C@H](c1ncccc1Cl)C1CC1)c1ccc2[nH]nc(-c3ccc(OC4CCN(C5COC5)CC4)cc3)c2c1 [Example A216, (S)-N-((3-chloropyridin-2-yl)(cyclopropyl)methyl)-3-(4-((1-(oxetan-3-yl)piperidin-4-yl)oxy)phenyl)-1H-indazole-5-carboxamide]",–,–,–,–,< 100,< 100,< 100,< 100
"COCCN1CCC(Oc2ccc(-c3n[nH]c4ccc(C(=O)NC(c5ccccc5)C5CC5)cc34)cc2)CC1 (stereo not shown) [Example A98, N-(cyclopropyl(phenyl)methyl)-3-(4-((1-(2-methoxyethyl)piperidin-4-yl)oxy)phenyl)-1H-indazole-5-carboxamide]",< 100,< 100,100 to 500,100 to 500,–,–,–,–
"O=C(NC(c1ccccc1)C1CC1)c1ccc2[nH]nc(-c3ccc(OC4CN(C5COC5)C4)cc3)c2c1 (stereo not shown) [Example A190, N-(cyclopropyl(phenyl)methyl)-3-(4-((1-(oxetan-3-yl)azetidin-3-yl)oxy)phenyl)-1H-indazole-5-carboxamide]",100 to 500,100 to 500,100 to 500,100 to 500,–,–,–,–
"CN1CCC(Oc2ccc(-c3n[nH]c4ccc(C(=O)NC(c5ccccc5)C5CCCCC5)cc34)cc2)CC1 (stereo not shown) [Example A170, N-(cyclohexyl(phenyl)methyl)-3-(4-((1-methylpiperidin-4-yl)oxy)phenyl)-1H-indazole-5-carboxamide]",> 500,> 500,> 500,> 500,–,–,–,–
"O=C(Nc1ccc2[nH]nc(-c3ccc(N4CCC(O)CC4)cc3)c2c1)C(c1ccsc1)N1CCC1 (stereo not shown) [Example A200, 2-(azetidin-1-yl)-N-(3-(4-(4-hydroxypiperidin-1-yl)phenyl)-1H-indazol-5-yl)-2-(thiophen-3-yl)acetamide]",< 100,< 100,100 to 500,< 100,–,–,–,–
"CN1CCC(Oc2ccc(-c3n[nH]c4ccc(C(=O)NC(c5ccccn5)C5CC5)cc34)cc2Cl)CC1 (stereo not shown) [Example A198, 3-(3-chloro-4-((1-methylpiperidin-4-yl)oxy)phenyl)-N-(cyclopropyl(pyridin-2-yl)methyl)-1H-indazole-5-carboxamide]",100 to 500,< 100,100 to 500,100 to 500,–,–,–,–
"COC[C@@H](NC(=O)c1ccc2[nH]nc(-c3ccc(OC4CCN(C)CC4)cc3)c2c1)c1ccccc1 [Example A173, (S)-N-(2-methoxy-1-phenylethyl)-3-(4-((1-methylpiperidin-4-yl)oxy)phenyl)-5-carboxamide]",100 to 500,100 to 500,> 500,100 to 500,–,–,–,–
"O=CN1CCC(Oc2ccc(-c3n[nH]c4ccc(C(=O)N[C@H](c5ncccc5Cl)C5CC5)cc34)cc2)CC1 [Example A212, (S)-N-((3-chloropyridin-2-yl)(cyclopropyl)methyl)-3-(4-((1-formylpiperidin-4-yl)oxy)phenyl)-1H-indazole-5-carboxamide]",–,–,–,–,< 100,< 100,100 to 500,< 100
"O=C(Nc1ccc2[nH]nc(-c3ccc(N4CCOCC4)cc3)c2c1)C(c1ccsc1)N1CCC1 (stereo not shown) [Example A172, 2-(azetidin-1-yl)-N-(3-(4-morpholinophenyl)-1H-indazol-5-yl)-2-(thiophen-3-yl)acetamide]",< 100,< 100,< 100,< 100,–,–,–,–
"CN1CCC(Oc2ccc(-c3n[nH]c4ccc(C(=O)NC(c5ccccc5)C5CCOCC5)cc34)cc2)CC1 (stereo not shown) [Example A177, 3-(4-((1-methylpiperidin-4-yl)oxy)phenyl)-N-(phenyl(tetrahydro-2H-pyran-4-yl)methyl)-1H-indazole-5-carboxamide]",100 to 500,< 100,100 to 500,100 to 500,–,–,–,–
"O=C(NC(c1ccccc1)C1CC1)c1ccc2[nH]nc(-c3ccc(N4CCOCC4)cc3)c2c1 (stereo not shown) [Example A12, N-(cyclopropyl(phenyl)methyl)-3-(4-morpholinophenyl)-1H-indazole-5-carboxamide]",–,< 100,> 500,100 to 500,–,–,–,–

# From US9580390B2, “Indazole compounds as kinase inhibitors and method of treating cancer with same” (University Health Network, priority 2011, dated 2017)
